Data reported in patent US8101200B2, “Targeted therapeutic agent release devices and methods of making and using the same” (Angiotech BioCoatings, Inc., priority 2000, dated 2012).

Test: Elution of paclitaxel from E3 Med Coat coated stents in phosphate buffered saline
Format: physicochemical
Settings: from E3 Med Coat stents (loading 50-60 μg), over a period of 14 days
Description: Solution E3-PC was coated on stainless steel coronary stents, and dried for 60 minutes at 120° C. This layer was applied twice. Solution E3 —Med Coat was coated over the precoat layers, and dried for 60 minutes at 120° C. Drug loading on the stents in the range of 50-60 μg was achieved by applying the Med Coat three times. The stent samples with three layers of E3—Med Coat were subjected to elution in room temperature phosphate buffered saline for times up to 336 hours, and produced the results set forth in TABLE I.

- paclitaxel eluted out: approximately 10%
SMILES: CC(=O)O[C@H]1C(=O)[C@@]2(C)[C@H]([C@H](OC(=O)c3ccccc3)[C@]3(O)C[C@H](OC(=O)[C@H](O)[C@@H](NC(=O)c4ccccc4)c4ccccc4)C(C)=C1C3(C)C)[C@]1(OC(C)=O)CO[C@@H]1C[C@@H]2O [paclitaxel]
